Here are results for six molecules from ChEMBL document CHEMBL5360592, “Ursane-Type Triterpenes with a Phenylpropanoid Unit from Camellia ptilosperma and Evaluation of Their Cytotoxic Activities” (J Nat Prod, 2023).

What all share (type): functional, cell-based
In one assay the test system is HeLa. Put plainly: Cytotoxicity against human HeLa cells assessed as inhibition of cell growth incubated for 24 hrs by MTT assay. On the technique in general: Tetrazolium dyes change colour on reduction, which living cells bring about.
The subject of a further assay is NCI-H460. Put plainly: Cytotoxicity against human NCI-H460 cells assessed as inhibition of cell growth incubated for 24 hrs by MTT assay. The conditions noted are these: NCI-H460, 24 h.
In another assay the test system is MDA-MB-231. Put plainly: Cytotoxicity against human MDA-MB-231 cells assessed as inhibition of cell growth incubated for 24 hrs by MTT assay. The conditions noted are these: MDA-MB-231, 24 h.
For another assay, the system named is A549. Put plainly: Cytotoxicity against human A549 cells assessed as inhibition of cell growth incubated for 24 hrs by MTT assay. The conditions noted are these: A549, 24 h.
Another assay has as its system HCT-116. Put plainly: Cytotoxicity against human HCT-116 cells assessed as inhibition of cell growth incubated for 24 hrs by MTT assay. The conditions noted are these: HCT-116, 24 h.
In another assay the test system is HT-29. Put plainly: Cytotoxicity against human HT-29 cells assessed as inhibition of cell growth incubated for 24 hrs by MTT assay. The conditions noted are these: HT-29, 24 h.
A short description of assay [1]: Cytotoxicity against mouse LL2 cells assessed as inhibition of cell growth incubated for 24 hrs by MTT assay. The conditions noted are these: Lewis lung carcinoma.
Another assay relates to CT26. Put plainly: Cytotoxicity against mouse CT26 cells assessed as inhibition of cell growth incubated for 24 hrs by MTT assay. The conditions noted are these: CT26, 24 h.
Assay [2] is described as follows: Cytotoxicity against mouse Hepa1-6 cells assessed as inhibition of cell growth incubated for 24 hrs by MTT assay. The conditions noted are these: Hepa1-6, 24 h.

As a reminder, the IC50 is the midpoint of a concentration-inhibition curve. For the molecule `COC(=O)[C@@]1(C)[C@@H]2CC[C@]3(C)[C@H]([C@@H]4O[C@@H](c5ccc(O)c(OC)c5)[C@@H](C)OC4=C4[C@@H]5[C@@H](C)[C@H](C)CC[C@]5(C)CC[C@]43C)[C@@]2(C)CC[C@@H]1O`, the IC50 in the assay on HeLa was 8.1 µM; with NCI-H460, greater than 10 µM; in the assay with MDA-MB-231 it was greater than 10 µM; in the assay with A549 it was greater than 10 µM; in the assay on HCT-116 it was greater than 10 µM; in the assay on HT-29 it was 8.5 µM. The IC50 in [1] was greater than 10 µM; in the assay with CT26 it was greater than 10 µM; in assay [2] it was 4.1 µM.
For `COC(=O)[C@@]1(C)[C@@H]2CC[C@]3(C)[C@H]([C@@H]4O[C@H](c5ccc(O)c(OC)c5)[C@@H](C)OC4=C4[C@@H]5[C@@H](C)[C@H](C)CC[C@]5(C)CC[C@]43C)[C@@]2(C)CC[C@@H]1O`, the IC50 with HeLa is greater than 10 µM; in the assay with NCI-H460 it was greater than 10 µM; in the assay with MDA-MB-231 it was 4.9 µM; in the assay with A549, greater than 10 µM; in the assay on HCT-116, 8.2 µM; in the assay with HT-29, greater than 10 µM. The IC50 in assay [1] is greater than 10 µM; in the assay on CT26 it was 9.1 µM; in [2], greater than 10 µM.
Take `COC(=O)[C@@]1(C)[C@@H]2CC[C@]3(C)[C@H]([C@@H]4O[C@H](C)[C@@H](c5ccc(O)c(OC)c5)OC4=C4[C@@H]5[C@@H](C)[C@H](C)CC[C@]5(C)CC[C@]43C)[C@@]2(C)CC[C@@H]1O`: the IC50 is greater than 10 µM in the assay on HeLa; greater than 10 µM in the assay on NCI-H460; 9.3 µM in the assay on MDA-MB-231; greater than 10 µM in the assay with A549; 7.5 µM in the assay with HCT-116; greater than 10 µM in the assay on HT-29. Moreover, the IC50 (in assay [1]; in the assay on CT26; in assay [2]) was greater than 10 µM throughout.
In the case of `COC(=O)[C@]1(C)[C@@H]2CC[C@]3(C)[C@H]([C@@H]4O[C@H](CO)[C@@H](c5ccc(O)c(OC)c5)OC4=C4[C@@H]5[C@@H](C)[C@H](C)CC[C@]5(C)CC[C@]43C)[C@@]2(C)CC[C@@H]1O`, the IC50 with HeLa, in the assay on NCI-H460, with MDA-MB-231, in the assay with A549, in the assay on HCT-116 and with HT-29 was greater than 10 µM each time. Also, the IC50 is greater than 10 µM in assay [1], 8.2 µM in the assay on CT26 and greater than 10 µM in assay [2].
On to `COc1cc([C@H]2O[C@@H]3C(=C4[C@@H]5[C@@H](C)[C@H](C)CC[C@]5(C)CC[C@@]4(C)[C@]4(C)CC[C@H]5C(C)(C)[C@@H](O)CC[C@]5(C)[C@@H]34)O[C@@H]2CO)ccc1O`, for which the IC50 is 5.2 µM in the assay on HeLa; greater than 10 µM in the assay on NCI-H460; 2.2 µM in the assay on MDA-MB-231; greater than 10 µM in the assay with A549; 5.7 µM with HCT-116; 6.8 µM in the assay on HT-29. Further, the figures for the IC50 (in [1]; in the assay on CT26; in assay [2]) were greater than 10 µM, 7.5 µM and 4.7 µM, respectively.
On to `COc1cc([C@H]2OC3=C4[C@@H]5[C@@H](C)[C@H](C)CC[C@]5(C)CC[C@@]4(C)[C@]4(C)CC[C@H]5C(C)(C)[C@@H](O)CC[C@]5(C)[C@H]4[C@@H]3O[C@@H]2CO)ccc1O`, for which the IC50 was 0.7 µM in the assay with HeLa; greater than 10 µM with NCI-H460; 2.7 µM in the assay with MDA-MB-231; greater than 10 µM in the assay on A549; 1.4 µM in the assay on HCT-116; 5.1 µM with HT-29. In addition, the IC50 in assay [1] is greater than 10 µM; with CT26, greater than 10 µM; in assay [2] it was 2.7 µM.
